Measured values: US11066446B2, “Cyclic peptide, affinity chromatography support, labeled antibody, antibody drug conjugate, and pharmaceutical preparation” (FUJIFILM Corporation, priority 2016, dated 2021)
Positions of bridges follow the written chain, without caps; N, C: chain ends. Non-standard residues stand in square brackets, D forms with d. Residues, ends and D or L forms follow the SMILES beside them. Triazole bridges read from a SMILES are 1,4-linked. No end group written: not given here. Lys(N3) = [N-]=[N+]=NCCCC[C@H](N)C(=O)O; Orn(N3) = [N-]=[N+]=NCCC[C@H](N)C(=O)O; Dap(N3) = [N-]=[N+]=NC[C@H](N)C(=O)O; Bpg = L-bishomopropargylglycine; Hpra = C#CCC[C@H](N)C(=O)O; Pra = C#CC[C@H](N)C(=O)O

Experiments:
[1] = Stability in human plasma (residual rate by mass spectrometry); conditions: 20 minutes at room temperature, 0-minute sample as 100%
Protocol: After 20 minutes, 100 μL of methanol (manufactured by Wako Pure Chemical Industries, Ltd.) was added thereto such that the reaction stopped. After being stirred, the solution was subjected to centrifugation, and the supernatant was collected and named 20-minute sample. Meanwhile, 100 μL of methanol was added to 20 μL of the human plasma, 2 μL of the aqueous solution of the cyclic peptide was then added thereto, the solution was stirred and subjected to centrifugation, and the supernatant was collected. The collected supernatant was named 0-minute sample.
By regarding the quantified value obtained from the 0-minute sample as 100%, the quantified value obtained from the 20-minute sample was calculated as a residual rate.

[2] = system: human immunoglobulin G (IgG) antibodies; assay: Relative binding activity to human IgG antibodies by surface plasmon resonance on immobilized sensor chip; conditions: SPR (Biacore 3000, CM5 chip), 3,000 nM human IgG for 10 minutes at 25° C., relative to the cyclic peptide of Comparative Example 1 regarded as 1
Protocol: A commercially available CM5 (carboxymethyl dextran introduction-type, manufactured by GE Healthcare) sensor chip was set in Biacore 3000 (Biacore is a registered trademark) as a surface plasmon resonance device manufactured by GE Healthcare, a 4-(2-hydroxyethyl)-1-piperazineethanesulfonic acid (HEPES) buffer solution (20 mM HEPES-HCl, 150 mM NaCl, pH 7.4) for surface plasmon resonance (SPR) was stabilized at a flow rate of 10 μL/min, and 70 μL of an aqueous mixed solution of 0.2 M 1-(3-Dimethylaminopropyl)-3-ethylcarbodiimide (EDC) and […] of N-Hydroxysuccinimide (NHS) were injected thereinto. Thereafter, 100 μL of a sample solution of the cyclic peptide 1, which was diluted with a HEPES buffer solution at 0.2 g/L and treated with a polytetrafluoroethylene (PTFE) filter (manufactured by Advantec MFS, Inc.) having a diameter of 0.20 μm, was supplied to the sensor chip. Then, a blocking treatment was then performed on the sample solution by using an aqueous ethanolamine solution, and the sensor chip was washed with an aqueous sodium hydroxide solution, thereby performing immobilization. Likewise, 70 μL of an aqueous mixed solution of 0.2 M EDC and 0.04 M NHS was added to the same sensor chip without immobilizing the sample in another flow channel of the sensor chip, and then the blocking treatment and the washing treatment were performed. Hereinafter, the obtained immobilized sensor chip will be referred to as “immobilized sensor chip A”.
At 25° C., 3,000 nM of human immunoglobulin G (IgG) antibodies were added for 10 minutes to the immobilized sensor chip A prepared in (2) described above. Then, the antibody binding amount in the flow channel in which the cyclic peptide was immobilized immediately after the addition and in the flow channel in which the cyclic peptide was not immobilized was measured. From the difference in the antibody binding amount between the flow channel in which the cyclic peptide was immobilized and the flow channel in which the cyclic peptide was not immobilized and the amount of the immobilized cyclic peptide, the activity of the cyclic peptide was calculated. Furthermore, by regarding the activity of a cyclic peptide 5 in Comparative Example 1 as 1, the relative binding activity with respect to the human IgG antibodies was calculated.

[3] = Chemical resistance: rate of change in antibody binding amount of immobilized support before and after alkali treatment; type: physicochemical; conditions: peptide-immobilized HiTrap support; human IgG binding amount at 10% leak, before and after 0.05 M aqueous NaOH for 6 hours at 25° C.
Protocol: 1 mL of HiTrap NHS-activated HP Columns (coupling columns for ligand immobilization, manufactured by GE Healthcare) (HITRAP is a registered trademark) was reacted with 1 mL of 10 mg/mL cyclic peptide solution, which was prepared by dissolving the cyclic peptide 1 in an immobilization buffer (10% DMSO in 200 mM NaHCO3, 500 mM NaCl, pH 8.3), for 1 hour at 25° C. The reaction product was blocked by an aqueous ethanolamine solution and washed, thereby obtaining a cyclic peptide 1-immobilized support. Hereinafter, the obtained immobilized support will be referred to as “immobilized support A”.
The immobilized support A prepared in (4) described above was connected to a chromatography system AKTA avant 25 (manufactured by GE Healthcare) (AKTAAVANT is a registered trademark), and the antibody binding amount was measured. The columns were equilibrated using an equilibration solution (20 mM phosphoric acid buffer, 150 mM NaCl, pH 7.4), and then 20 mL of a 5 mg/mL human IgG antibody standard buffer solution (20 mM phosphoric acid buffer, 150 mM NaCl, pH 7.4) was injected thereinto at a flow rate of 0.21 mL/min. Thereafter, the columns were washed with 5 mL of a postloading wash solution (20 mM phosphoric acid buffer, 150 mM NaCl, pH 7.4) caused to flow at the same flow rate and then washed with 5 mL of a pre-elution wash solution (20 mM phosphoric acid buffer, 1 M NaCl, pH 7.4) at the same flow rate. Then, 5 mL of an elution solution (100 mM citric acid buffer, pH 3.2) was caused to flow at the same flow rate. Subsequently, 5 mL of a cleaning in place (CIP) solution (0.1 M sodium hydroxide) was caused to flow at the same flow rate, and then 5 mL of a reequilibration solution (20 mM phosphoric acid buffer, 150 mM NaCl, pH 7.4) was caused to flow at the same flow rate. At this time, by using an immunoglobulin G (IgG) elution peak obtained by monitoring absorbance at 280 nm, the amount of antibodies binding to the support until 10% of the antibody stock solution leaked out of the support was measured as the antibody binding amount. Then, the immobilized support A was filled with a 0.05 M aqueous NaOH solution for 6 hours at 25° C. and left to stand, the antibody binding amount of the support was then measured in the same manner, and a rate of change in the binding amount was calculated from the antibody binding amount before and after the alkali treatment.

Compound	Stability in plasma (residual rate) [1]	Relative binding activity [2]	Chemical resistance (rate of change in the binding amount) [3]	Relative binding activity ([2]; listed as Example 16)	Relative binding activity ([2]; listed as Example 9)
CC(C)C[C@@H]1NC(=O)[C@H](Cc2c[nH]cn2)NC(=O)[C@H](Cc2ccc(O)cc2)NC(=O)[C@H](C)NC(=O)[C@@H](NC(=O)[C@@H](N)CC(=O)O)CCc2cn(nn2)C[C@@H](C(=O)N[C@H](C(=O)N[C@@H](CCCCN)C(=O)N[C@@H](CCCCN)C(=O)O)[C@@H](C)O)NC(=O)[C@H](Cc2c[nH]c3ccccc23)NC(=O)[C@H](C(C)C)NC(=O)[C@H](CC(C)C)NC(=O)[C@H](CCC(=O)O)NC(=O)CNC1=O [Cyclic peptide 4, Asp-[Hpg]-Ala-Tyr-His-Leu-Gly-Glu-Leu-Val-Trp-[Ala(N3)]-Thr-Lys-Lys] (H-D[Hpra]AYHLGELVW[Dap(N3)]TKK-OH; triazole 2-12; N-terminus and C-terminus assumed)	A (The rate of change in the binding amount was higher than 90%)				
CC(C)C[C@@H]1NC(=O)[C@H](CCC(=O)O)NC(=O)CNC(=O)[C@H](CCCNC(=N)N)NC(=O)[C@H](Cc2c[nH]cn2)NC(=O)[C@H](Cc2ccc(O)cc2)NC(=O)[C@H](C)NC(=O)[C@@H](NC(=O)[C@@H](N)CC(=O)O)CCC(=O)NCCCC[C@@H](C(=O)N[C@H](C(=O)N[C@@H](CCCCN)C(=O)N[C@@H](CCCCN)C(=O)O)[C@@H](C)O)NC(=O)[C@H](Cc2c[nH]c3ccccc23)NC(=O)[C@H](C(C)C)NC1=O [Cyclic peptide 17, Asp-[Glu]-Ala-Tyr-His-Arg-Gly-Glu-Leu-Val-Trp-[Lys]-Thr-Lys-Lys, reference compound] (HELM PEPTIDE1{D.E.A.Y.H.R.G.E.L.V.W.K.T.K.K}$PEPTIDE1,PEPTIDE1,2:R3-12:R3$$$V2.0; N-terminus and C-terminus assumed)	E (The rate of change in the binding amount was equal to or lower than 50%)				
Asp-[Lys(N3)]-Ala-Tyr-His-Arg-Gly-Glu-Leu-Val-Trp-[Bpg]-Thr-Lys-Lys (D[Lys(N3)]AYHRGELVW[Bpg]TKK; triazole 2-12) [Cyclic peptide 1, [Lys(N3)] and [Bpg] cross-linked through a triazole bond]	A (The rate of change in the binding amount was higher than 90%)	A (The relative binding activity was higher than 800% of the binding activity of the cyclic peptide 5)	B (The rate of change in the binding amount was higher than 80% and equal to or lower than 90%)		
Asp-[Lys(N3)]-Ala-Tyr-His-Leu-Gly-Glu-Leu-Val-Trp-[Bpg]-Thr-Lys-Lys (D[Lys(N3)]AYHLGELVW[Bpg]TKK; triazole 2-12) [Cyclic peptide 2, [Lys(N3)] and [Bpg] cross-linked through a triazole bond]	A (The rate of change in the binding amount was higher than 90%)	A (The relative binding activity was higher than 800% of the binding activity of the cyclic peptide 5)	A (The rate of change in the binding amount was higher than 90%)		
Asp-[Nva(N3)]-Ala-Tyr-His-Leu-Gly-Glu-Leu-Val-Trp-[Bpg]-Thr-Lys-Lys (D[Orn(N3)]AYHLGELVW[Bpg]TKK; triazole 2-12) [Cyclic peptide 16, [Nva(N3)] and [Bpg] cross-linked through a triazole bond]		B (The relative binding activity was higher than 400% and equal to or lower than 800% of the binding activity of the cyclic peptide 5)	A (The rate of change in the binding amount was higher than 90%)	C or a higher grade	
Asp-[Pra]-Ala-Tyr-His-Leu-Gly-Glu-Leu-Val-Trp-[Lys(N3)]-Thr-Lys-Lys (D[Pra]AYHLGELVW[Lys(N3)]TKK; triazole 2-12) [Cyclic peptide 9, [Pra] and [Lys(N3)] cross-linked through a triazole bond]		B (The relative binding activity was higher than 400% and equal to or lower than 800% of the binding activity of the cyclic peptide 5)	A (The rate of change in the binding amount was higher than 90%)		C or a higher grade
Lys-Lys-Lys-Asp-[Hpg]-Ala-Tyr-His-Leu-Gly-Glu-Leu-Val-Trp-[Ala(N3)]-Thr (KKKD[Hpra]AYHLGELVW[Dap(N3)]T; triazole 5-15) [Cyclic peptide 5, [Hpg] and [Ala(N3)] cross-linked through a triazole bond]		A (The relative binding activity was higher than 800% of the binding activity of the cyclic peptide 5)	A (The rate of change in the binding amount was higher than 90%)		
